Assay results taken from ChEMBL document CHEMBL1144165, “Cyclic diarylheptanoids from Myrica nana inhibiting nitric oxide release” (Bioorg Med Chem, 2008).
Calls of active or inactive are those of the source. The calls are words filed in the database; no cut-off is given here.

Key:
Macrophage [1] = test: Inhibition of LPS-stimulated nitric oxide production in BALB/c mouse macrophages after 20 hrs by Griess assay relative to control; format: functional, cell-based
Macrophage [2] = test: Inhibition of LPS-stimulated nitric oxide production in BALB/c mouse macrophages at 30 uM after 20 hrs by Griess assay relative to control; format: functional
Macrophage [3] = test: Inhibition of LPS-stimulated nitric oxide production in BALB/c mouse macrophages at 100 uM after 20 hrs by Griess assay relative to control; format: functional
Macrophage [4] = test: Inhibition of LPS-stimulated nitric oxide production in BALB/c mouse macrophages at 3 uM after 20 hrs by Griess assay relative to control; format: functional
Macrophage [5] = test: Inhibition of LPS-stimulated nitric oxide production in BALB/c mouse macrophages at 1 uM after 20 hrs by Griess assay relative to control; format: functional
Macrophage [6] = test: Inhibition of LPS-stimulated nitric oxide production in BALB/c mouse macrophages at 10 uM after 20 hrs by Griess assay relative to control; format: functional
Macrophage [7] = test: Inhibition of iNOS expression in LPS-activated BALB/c mouse macrophages at 1 to 100 uM after 12 hrs by SDS-PAGE; format: functional, cell-based

| SMILES | IC50 (Macrophage [1]) | inhibition at 30 µM (Macrophage [2]) | inhibition at 100 µM (Macrophage [3]) | inhibition at 3 µM (Macrophage [4]) | inhibition at 1 µM (Macrophage [5]) | inhibition at 10 µM (Macrophage [6]) | Activity (Macrophage [7]) |
| --- | --- | --- | --- | --- | --- | --- | --- |
| COc1c2cc(c(O)c1OC)CCCCC(=O)C(O)Cc1ccc(O)c-2c1 (stereo unspecified) | 30.2 µM | 55.7% | 65.5% | 48.7% | 35.1% | 41.8% |  |
| COC1=C(OC)C(=O)C2=C(CCCCC(O)CCc3ccc(O)c2c3)C1=O (stereo unspecified) [ACTINIDIONE] |  | 31.4% | 38.7% | 21.1% | 9.52% | 22.9% |  |
| O=C1CCc2ccc(O)c(c2)-c2cc(ccc2O)CCC(O)C1 (stereo unspecified) [ALNUSONOL] | 46.2 µM | 41.1% | 54.5% | 34.8% | -3.39% | 45.8% |  |
| COc1cc2cc(c1O)-c1cc(ccc1O)C[C@H](O)[C@@H](O)CCCC2 [MYRICANANIN A] | 45.3 µM | 50.8% | 84.4% | -0.13% | 0.84% | 36% | Active |
| COc1c2cc(c(O)c1OC)CCCC[C@@H]1OC(C)(C)O[C@H]1Cc1ccc(O)c-2c1 [MYRICANANIN B] | 52.8 µM | 49.7% | 55.8% | 32.8% | 17.3% | 39.2% |  |
| COc1cc2cc(c1O)-c1cc(ccc1O)CCC(=O)CCCC2 [MYRICANANIN C] | 63.5 µM | 42.6% | 50.1% | 32.8% | 17.3% | 39.1% |  |
| COc1c2cc(c(O)c1OC)CCCCC(=O)/C=C\c1cc(O)c(O)c-2c1 [MYRICANANIN D] |  | 19.1% | 31.8% | 17.7% | 6.12% | 23.8% |  |
| COc1c2cc(c(O)c1OC)CCCCC(=O)C(OC)Cc1cc(O)c(O)c-2c1 (stereo unspecified) [MYRICANANIN E] |  | 29.8% | 49.2% | 9.22% | -3.27% | 15.3% |  |
